In patent publication US9539196B2, “Compositions comprising a SIRT6 activator and a DNA repair enzyme” (ELC Management LLC, priority 2014, dated 2017):
Where two headings read alike, the source gives them in different places. Ends that are not written are not given here.

Experiments:
sirtuin 6 = conditions: cited from earlier work; for sirtuin 6 expression: short-term cultures
[1] = tested on: Normal Human Epidermal Keratinocytes (NHEK); assay: Comet assay of DNA fragmentation in NHEK exposed to UVB (Test Example 1); format: cell-based; conditions: FIG. 1
Procedure: This study used control samples and three types of test samples. Control samples were neither treated with the peptide, nor exposed to UVB radiation. Type 1 samples were treated with the peptide, as described below, but not exposed to UVB radiation. Type 2 samples were not treated with the peptide, but were exposed to UVB radiation. Type 3 samples were treated with the peptide, as described below, and exposed to UVB radiation. SIRT6 activating peptide (SEQ ID No. 1) in powdered form was prepared in solution at 50 ppm.
For all test samples, Normal Human Epidermal Keratinocytes (NHEK) were seeded on Trevigen Flare™ slides at 8,000 cells/spot for DNA fragmentation analysis. Cells were incubated at 37° C., 95% humidity and 5% CO2 in cell culture media for 24 hours. Type 1 and type 3 samples were treated with the 50 ppm powdered peptide solution at 3% of the cell culture media (equivalent to 0.00015% of peptide in solution), and all samples were incubated for 48 hours. Thereafter, the cell culture media was removed from all samples and replaced with 100 μl of Dulbecco's Phosphate Buffered Saline. […]
Following the six hour incubation, the sample cells were washed with phosphate buffered saline. […] The tail moments were analyzed with the Comet Score software from TriTek, Corp (Sumerduck, Va.). […]

SIRT6 = conditions: Normal Human Epidermal Keratinocytes (NHEK); cited from earlier work

Gly-Ala-Gly-Val-Ser-Ala-Glu-NH2 (GAGVSAE-NH2) [SEQ ID No. 1]
sirtuin 6 expression stimulation effect, long term (sirtuin 6; long term cultures): maintained for the long term | sirtuin 6 expression (sirtuin 6; normal human fibroblasts): increase sirtuin 6 expression very significantly | sirtuin 6 expression (sirtuin 6; normal human keratinocytes): increase sirtuin 6 expression very significantly | DNA fragmentation (comet tail moment) ([1]; type 1 samples: NHEK treated with peptide (0.00015% in solution), not irradiated): comparable to the control samples | DNA fragmentation (comet tail moment) ([1]; type 3 samples: NHEK pre-treated with peptide 48 h (0.00015%), 20 mJ/cm^2 UVB, post-treated 6 h): comparable to the control samples | SIRT6 expression (SIRT6): dose dependent increase in SIRT6 expression
